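A five-concentration, 48-hour dose response in 96-well plates underlies each endpoint, interpolated linearly between surrounding concentrations. TGI denotes the concentration required for complete inhibition of growth.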
Tests used:
Experiment in all cases: NCI anticancer screen, dose series, 48 h
K-562 leukemia = system: K-562 leukemia
M14 melanoma = system: M14 melanoma
MCF7 breast = system: MCF7 breast
UACC-62 melanoma = system: UACC-62 melanoma
SK-MEL-2 melanoma = system: SK-MEL-2 melanoma
UO-31 renal = system: UO-31 renal
OVCAR-5 ovarian = system: OVCAR-5 ovarian
SF-295 CNS = system: SF-295 CNS
DU-145 prostate = system: DU-145 prostate
HOP-92 NSCLC = system: HOP-92 NSCLC
A549 NSCLC = system: A549 NSCLC
A498 renal = system: A498 renal
MDA-MB-435 = system: MDA-MB-435
TK-10 renal = system: TK-10 renal
IGROV1 ovarian = system: IGROV1 ovarian
NCI-H460 lung = system: NCI-H460 lung
HCC-2998 colon = system: HCC-2998 colon

| SMILES | TGI (K-562 leukemia) | TGI (M14 melanoma) | TGI (MCF7 breast) | TGI (UACC-62 melanoma) | TGI (SK-MEL-2 melanoma) | TGI (UO-31 renal) | TGI (OVCAR-5 ovarian) | TGI (SF-295 CNS) | TGI (DU-145 prostate) | TGI (HOP-92 NSCLC) | TGI (A549 NSCLC) | TGI (A498 renal) | TGI (MDA-MB-435) | TGI (TK-10 renal) | TGI (IGROV1 ovarian) | TGI (NCI-H460 lung) | TGI (HCC-2998 colon) |
| --- | --- | --- | --- | --- | --- | --- | --- | --- | --- | --- | --- | --- | --- | --- | --- | --- | --- |
| CC(O)C1(O)C(O)CC(OC2c3cc4c(c(O)c3[C@@H]3C[C@@]2(C)OC32C=c3cc[nH]c3=N2)C(=O)c2cccc(O)c2C4=O)OC1C (stereo partly drawn) | 4.78 µM | 2.73 µM | 1.69 µM | 3.18 µM | 3.11 µM | 8.44 µM | 9.49 µM | 5.73 µM | 8.8 µM | 7.44 µM | 4.4 µM | 2.75 µM | 3.14 µM | 7.32 µM | 3.22 µM | 4.03 µM | 2.84 µM |
| c1ccc(C2(c3cc4ccccc4[nH]3)OCCO2)nc1 |  | > 100 µM | > 100 µM | > 100 µM | > 100 µM | > 100 µM | > 100 µM | > 100 µM | > 100 µM | > 100 µM | > 100 µM | > 100 µM | > 100 µM | > 100 µM | > 100 µM | > 100 µM | > 100 µM |
| C=C1C(=O)O[C@H]2C(=O)[C@H](C)CCC/C(C)=C/CC[C@@]3(C)O[C@@H]3C[C@@H]12 | 10.2 µM | 3.28 µM | 15 µM | 16.8 µM | 20.9 µM | 3.18 µM | 18.9 µM | 27.3 µM | 11.1 µM | 2.99 µM | 21.4 µM | 32.8 µM | 5.82 µM | 1.65 µM | 10.2 µM | 30.8 µM |  |
| COC(=O)c1ccccc1/C=C1\Cc2ccc3c(c2C1=O)CCC3 | > 100 µM |  | > 100 µM | > 100 µM |  | > 100 µM | > 100 µM | > 100 µM | > 100 µM | > 100 µM | > 100 µM | > 100 µM | > 100 µM | > 100 µM | > 100 µM | > 100 µM | > 100 µM |
| COc1ccc(C[C@@H]2OC3(C=CC(=O)CC3Sc3ccccc3)O[C@H]2Cc2ccc(OC)cc2)cc1 (stereo partly drawn) | > 100 µM | 2.75 µM | 1.98 µM | 5.12 µM | 3.05 µM | 2.28 µM | 2.58 µM | 4.69 µM | 11.6 µM | 2.49 µM | 12.7 µM | 16.1 µM | 3.98 µM | 3.88 µM | 2.13 µM | 12.1 µM |  |
| CNc1ccc(C)cc1S(=O)(=O)c1ccccc1[N+](=O)[O-] | > 100 µM | > 100 µM | 65 µM | > 100 µM | > 100 µM | > 100 µM | > 100 µM | > 100 µM | > 100 µM |  | > 100 µM | > 100 µM | > 100 µM | > 100 µM | > 100 µM | > 100 µM | > 100 µM |
| CC1(C)COC(c2cccc(C(O)c3ccc(Cl)cc3)c2)=N1 (stereo not drawn) | > 100 µM | 45.1 µM | 39.6 µM | 44.9 µM | 47.5 µM | 46.7 µM | 45.5 µM |  | > 100 µM | 59 µM |  |  | 67.3 µM | 76.3 µM | > 100 µM | > 100 µM | 64.7 µM |
| O=[N+]([O-])c1ccc(C2=NOC(c3ccccc3)N2C23CC4CC(CC(C4)C2)C3)cc1 (stereo not drawn) | 39.9 µM | 88.4 µM | 60.1 µM | 85.8 µM | 37.5 µM | 67.3 µM | 53.2 µM | 66.6 µM | 95 µM |  | 96.7 µM | > 100 µM | 44.5 µM | > 100 µM | 72.5 µM | 47.5 µM | > 100 µM |
| c1ccc(CN2C3C4N(Cc5ccccc5)C2C2N(Cc5ccccc5)C(C(N2Cc2ccccc2)N4Cc2ccccc2)N3Cc2ccccc2)cc1 | > 100 µM | > 100 µM | > 100 µM | > 100 µM | > 100 µM |  | > 100 µM | > 100 µM | > 100 µM | > 100 µM | > 100 µM | > 100 µM | > 100 µM | > 100 µM | > 100 µM |  | > 100 µM |
| C#CCNCC(=O)O |  | > 100 µM | > 100 µM | > 100 µM | > 100 µM | > 100 µM | > 100 µM | > 100 µM | > 100 µM | > 100 µM | > 100 µM | > 100 µM | > 100 µM | > 100 µM | > 100 µM |  | > 100 µM |
| COc1ccc(NC(=O)CSc2nc(C)nc3c2sc(=S)n3-c2ccccc2)cc1 | > 10 µM | > 10 µM | > 10 µM | > 10 µM |  |  | > 10 µM | > 10 µM | > 10 µM | > 10 µM | > 10 µM | > 10 µM | > 10 µM | > 10 µM | > 10 µM | > 10 µM | > 10 µM |
| COC(=O)C1=C(C)NC(CF)=C(C(=O)OC)C1c1cccc2c(=O)c3ccccc3oc12 (stereo not drawn) | > 100 µM |  | > 100 µM | > 100 µM | > 100 µM | 92.8 µM | > 100 µM | 22.7 µM | > 100 µM | 35.3 µM | > 100 µM | 94.5 µM | > 100 µM | > 100 µM | 18.9 µM | > 100 µM | > 100 µM |
| CC(C)=NC(C(=O)O)C(C)(C)S (stereo not drawn) | > 100 µM | > 100 µM | > 100 µM | > 100 µM | > 100 µM | > 100 µM | > 100 µM | > 100 µM | > 100 µM | > 100 µM | > 100 µM | > 100 µM | > 100 µM | > 100 µM | > 100 µM | > 100 µM |  |
| CCN(CC)CCC(=O)c1ccc(Cl)c(Cl)c1 | > 100 µM | > 100 µM | 28.8 µM | 31 µM |  | > 100 µM | > 100 µM | > 100 µM | > 100 µM | 30.6 µM | > 100 µM | 76 µM | 30.8 µM |  | > 100 µM | > 100 µM | > 100 µM |
